Measurements taken from US20250304549A1, “HYDROXYAMIDE DERIVATIVE AND USE THEREOF” (SICHUAN HUIYU PHARMACEUTICAL CO., LTD., priority 2022, published 2025).
Structures can show the parent of a compound that is named as a salt.

How the values were obtained:
HDAC8 = HDAC8 (Homo sapiens (Human), UniProt Q9BY41); assay: In vitro enzyme inhibition assay - HDAC (HDAC-Glo I/II), HDAC8; type: biochemical; conditions: read-out: HDAC IC50 (nM) HDAC 8
Summary of the method: (§1)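 The compound, serially diluted 5-fold in DMSO across 8 concentrations starting from a 1 mM stock, was made up as 4× working solutions in HDAC buffer. It was then tested in the HDAC-Glo I/II system, and luminescence was recorded. IC50 values came from variable-slope four-parameter curves of inhibition rate.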

DU145 cells = assay: In vitro cell inhibition assay - DU145 cell proliferation (CellTiter-Glo); type: cell-based
Description: 5. In Vitro Cell Inhibition Assay—DU145 Cell Proliferation
The inhibitory effect of the compounds on cell proliferation was assessed by detecting the number of viable cells using the CellTiter-Glo® reagent. DU145 cells in the logarithmic growth phase were collected and inoculated into transparent bottom 96-well plates at a density 1×10^3 cells per well with 100 μL medium, and incubated at 37° C., 5% CO2 overnight. The compounds were sequentially diluted in a 5-fold concentration gradient with DMSO to obtain 8 different concentrations. These were then diluted with RPMI-640 (containing 10% FBS) cell culture medium to obtain the compound working solution (2×), which was added to the cell supernatant at 100 μL per well. The incubation continued for 6 days at 37° C., 5% CO2. The plate was then removed and equilibrated at room temperature (25° C.) along with the CellTiter-Glo® mixing reagent for 10-30 minutes. After centrifugation, 120 μL of the culture medium was carefully aspirated from each well, and 60 μL of CellTiter-Glo® reagent was added. The cells were thoroughly mixed with the CellTiter-Glo® mixing reagent using a microplate shaker for 2 min. and then incubated at room temperature for 10 min. The 96-well plate was subsequently placed on a multifunctional microplate reader to record the Luminescence values (RLU).
The inhibition rate was calculated using the following formula: […]
Note: ‘Negative’ refers to the group without inhibitors; ‘Blank’ refers to the group without cells.
The IC50 value was determined by fitting the inhibition rate by GraphPad Prism software.

pan-HDAC = assay: In vitro enzyme inhibition assay - HDAC (HDAC-Glo I/II), pan-HDAC; type: biochemical
Summary of the method: as §1

NCI-H1417 cells = assay: In vitro cell inhibition assay - H1417 cell proliferation (CellTiter-Glo); type: cell-based
Summary of the method: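 Cells exposed to 8 compound concentrations (5-fold dilutions) in BEGM with 10% FBS for 7 days at 37° C., 5% CO2. Viable cells measured by CellTiter-Glo luminescence; inhibition versus no-inhibitor and no-cell controls, IC50 fitted.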

NCI-H69 cells = assay: In vitro cell inhibition assay - NCI-H69 cell proliferation (CellTiter-Glo); type: cell-based
Summary of the method: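 NCI-H69 cells seeded at 1×10^3 per well overnight, then given 8 compound concentrations (5-fold dilutions) in RPMI-640 with 20% FBS for 7 days at 37° C., 5% CO2. Viable cells by CellTiter-Glo luminescence; IC50 fitted from inhibition rate versus no-inhibitor and no-cell controls.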

LSD1 = LSD1 (Homo sapiens (Human), UniProt O60341); assay: In vitro enzyme inhibition assay - LSD1 (HTRF); type: biochemical
[1] = Homo sapiens, DU-145, Du145 prostate cancer cell proliferation
[2] = Homo sapiens, NCI-H1417, H1417 small cell lung cancer cell proliferation
[3] = Homo sapiens, NCI-H69, H69 small cell lung cancer cell proliferation

Chain of HDAC8 (Q9BY41 whole entry): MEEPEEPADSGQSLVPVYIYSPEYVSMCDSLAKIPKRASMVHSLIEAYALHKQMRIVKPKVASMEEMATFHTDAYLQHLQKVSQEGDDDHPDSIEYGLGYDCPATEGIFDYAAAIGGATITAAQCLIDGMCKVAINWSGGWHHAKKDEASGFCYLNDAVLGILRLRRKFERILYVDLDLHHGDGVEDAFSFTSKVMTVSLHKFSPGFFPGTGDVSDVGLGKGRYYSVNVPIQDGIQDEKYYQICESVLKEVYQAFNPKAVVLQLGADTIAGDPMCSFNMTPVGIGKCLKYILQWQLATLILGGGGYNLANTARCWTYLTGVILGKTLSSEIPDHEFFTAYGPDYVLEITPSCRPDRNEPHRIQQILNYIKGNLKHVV

Row | Compound | IC50 (HDAC8) [nM] | IC50 (DU145 cells; [1]) [nM] | IC50 (pan-HDAC) [nM] | IC50 (NCI-H1417 cells; [2]) [nM] | IC50 (NCI-H69 cells; [3]) [nM] | IC50 (LSD1) [nM] | IC50 (DU145 cells; Du145 prostate cancer cell proliferation) [nM] | IC50 (NCI-H1417 cells; H1417 small cell lung cancer cell proliferation) [nM] | IC50 (NCI-H69 cells; H69 small cell lung cancer cell proliferation) [nM]
1 | COc1ccc(-c2c(-c3ccc(C#N)c(F)c3)nc(N3CCC(NCc4ccc(/C=C/C(=O)NO)cc4)CC3)n3ccnc23)cc1O [Example 70, (E)-3-(4-(((1-(7-(4-Cyano-3-fluorophenyl)-8-(3-hydroxy-4-methoxyphenyl)imidazo[1,2-c]pyrimidin-5-yl)piperidin-4-yl)amino)methyl)phenyl)-N-hydroxyacrylamide formate] | 26.5 | 262 | 76.6 | 1.44 | 214 | 1.18 |  |  | 
2 | COc1cc(-c2cnc(N3CCC(NCc4cccc(/C=C/C(=O)NO)c4)CC3)c(C#N)c2-c2ccc(C#N)c(F)c2)ccc1O [Example 98, (E)-3-(3-((1-(3-Cyano-4-(4-cyano-3-fluorophenyl)-5-(4-hydroxy-3-methoxyphenyl)pyridin-2-yl)piperidin-4-yl)amino)methyl) phenyl)-N-hydroxyacrylamide formate] | 480 | 2230 | 394 | 707 | 528 | 160 |  |  | 
3 | COc1cc(-c2cnc(N3CCC(N(C)Cc4ccc(/C=C/C(=O)NO)cc4)CC3)c(C#N)c2-c2ccc(C#N)c(F)c2)ccc1O [Example 99, (E)-3-(4-(((1-(3-Cyano-4-(4-cyano-3-fluorophenyl)-5-(4-hydroxy-3-methoxyphenyl)pyridin-2-yl)piperidin-4-yl)(methyl)amino)methyl)phenyl)-N-hydroxyacrylamide formate] | 120 | 122 | 50.9 | 11.8 | 97.3 | 9.5 |  |  | 
4 | COc1ccc(-c2cnc(N3CCC(NCc4ccc(/C=C/C(=O)NO)cc4)CC3)nc2-c2ccc(C#N)c(F)c2)cc1O [Example 71, (E)-3-(4-(((1-(4-(4-cyano-3-fluorophenyl)-5-(3-hydroxy-4-methoxyphenyl)pyrimidin-2-yl)piperidin-4-yl)amino)methyl)-N-hydroxyacrylamide formate] | 125 |  | 51.8 |  |  | 4.61 | 431 | 42.3 | 99
5 | COc1ccc(-c2c(OCCCCCCC(=O)NO)cc(N3CCC(N)CC3)nc2-c2ccc(C#N)c(F)c2)cc1 [Example 8, 7-[(6-(4-Aminopiperidin-1-yl)-2-(4-cyano-3-fluorophenyl)-3-(4-methoxyphenyl)pyridin-4-yl)oxy]-N-hydroxyheptanamide trifluoroacetate] |  | 2850 | 21.7 | 501 | 2530 | 18.6 |  |  | 
6 | COc1ccc(-c2cnc(N3CCC(NCCCc4ccc(C(=O)NO)cc4)CC3)c(C#N)c2-c2ccc(C#N)c(F)c2)cc1O [Example 107, 4-(3-(3-Cyano-4-(4-cyano-3-fluorophenyl)-5-(3-hydroxy-4-methoxyphenyl)pyridin-2-yl)piperidin-4-yl)amino)propyl)-N-hydroxybenzamide formate] | 50.6 | 2330 | 378 | 10.4 | 1040 | 1.29 |  |  | 
7 | COc1cc(-c2ccc(C(=O)N3CC[C@H](NCc4ccc(/C=C/C(=O)NO)cc4)C3)cc2-c2ccc(C#N)c(F)c2)ccc1O [Example 73, (S,E)-3-(4-(((1-(4″-Cyano-3″-fluoro-4-hydroxy-3-methoxy-[1,1]: 2′,1″-terphenyl]-4′-carbonyl)pyrrolidin-3-yl)amino)methyl)phenyl)-N-hydroxyacrylamide formate] | 152 | 2230 | 186 | 125 | 678 | 21.2 |  |  | 
8 | COc1ccc(-c2cnc(N3CCC(NCc4ccc(C#CC(=O)NO)cc4)CC3)c(C#N)c2-c2ccc(C#N)c(F)c2)cc1O [Example 109, 3-(4-(1-(3-Cyano-4-(4-cyano-3-fluorophenyl)-5-(3-hydroxy-4-methoxyphenyl)pyridin-2-yl)piperidin-4-yl)amino)methyl) phenyl)-N-hydroxypropiolamide formate] | 391 | 3820 | 657 | 2.76 | 411 | 4.19 |  |  | 
9 | N#Cc1ccc(-c2c(-c3ccc(C(F)(F)F)c(O)c3)cnc(N3CCC(NCc4ccc(/C=C/C(=O)NO)cc4)CC3)c2C#N)cc1F [Example 129, (E)-3-(4-(1-(3-Cyano-4-(4-cyano-3-fluorophenyl)-5-(3-hydroxy-4-(trifluoromethyl)phenyl)pyridin-2-yl)piperidin-4-yl)amino)methyl) phenyl)-N-hydroxyacrylamide formate] | 322 | 86.9 | 18.2 | 4.38 | 25.8 | 1.47 |  |  | 
10 | COc1cc(-c2cnc(N3CCC(NCCc4cccc(/C=C/C(=O)NO)c4)CC3)c(C#N)c2-c2ccc(C#N)c(F)c2)ccc1O [Example 92, (E)-3-(3-(2-(1-(3-Cyano-4-(4-cyano-3-fluorophenyl)-5-(4-hydroxy-3-methoxyphenyl)pyridin-2-yl)piperidin-4-yl)amino)ethyl) phenyl)-N-hydroxyacrylamide formate] | 623 | 2370 | 340 | 63 | 497 | 1.41 |  |  | 
11 | COc1ccc(-c2cnc(N3CCC(NCCCc4ncc(C(=O)NO)s4)CC3)c(C#N)c2-c2ccc(C#N)c(F)c2)cc1O [Example 125, 2-(3-(3-Cyano-4-(4-cyano-3-fluorophenyl)-5-(3-hydroxy-4-methoxyphenyl)pyridin-2-yl)piperidin-4-yl)amino)propyl)-N-hydroxythiazole-5-carboxamide formate] | 23.4 | 3040 | 226 | 12 | 1950 | 0.74 |  |  | 
12 | N#Cc1ccc(-c2c(-c3ccc4c(c3)OCO4)cnc(N3CCC(NCc4ccc(/C=C/C(=O)NO)cc4)CC3)c2C#N)cc1F [Example 103, (E)-3-(4-(((1-(5-(Benzo[d][1,3]dioxol-5-yl)-3-cyano-4-(4-cyano-3-fluorophenyl)pyridin-2-yl)piperidin-4-yl)amino)methyl)phenyl)-N-hydroxyacrylamide formate] | 159 | 254 | 62.3 | 43.3 | 83.6 | 14.2 |  |  | 
13 | COc1ccc(-c2cnc(N3CCC(NCc4ccc(OCC(=O)NO)c(OC)c4)CC3)c(C#N)c2-c2ccc(C#N)c(F)c2)cc1O [Example 128, 2-(4-((1-(3-Cyano-4-(4-cyano-3-fluorophenyl)-5-(3-hydroxy-4-methoxyphenyl)pyridin-2-yl)piperidin-4-yl)amino)methyl)-2-methoxyphenoxy)-N-hydroxyacetamide formate] | 223 | 239 | 5 | 2.01 | 130 | 0.39 |  |  | 
14 | Cc1ccc(-c2c(OCCCCCCC(=O)NO)cc(N3CCC(N)CC3)nc2-c2ccc(C#N)c(F)c2)cc1 [Example 7, 7-[(6-(4-Aminopiperidin-1-yl)-2-(4-cyano-3-fluorophenyl)-3-(4-methylphenyl)pyridin-4-yl)oxy]-N-hydroxyheptanamide-hydrochloride] |  | 2960 | 41.3 | 762 | 2540 | 36 |  |  | 
15 | COc1ccc(-c2c(OCCCCCCC(=O)NO)cc(N3CCC(N)CC3)nc2-c2ccc(C#N)c(C)c2)cc1O [Example 16, 7-((6-(4-Aminopiperidin-1-yl)-2-(4-cyano-3-methylphenyl)-3-(3-hydroxy-4-methoxyphenyl)pyridin-4-yl)oxy)-N-hydroxyheptanamide hydrochloride] |  | 3700 | 4.23 | > 1000 | 3640 | 33.2 |  |  | 
16 | CN(C)c1ncc(-c2c(OCCCCCCC(=O)NO)cc(N3CCC(N)CC3)nc2-c2ccc(C#N)c(F)c2)cn1 [Example 13, 7-((6-(4-Aminopiperidin-1-yl)-2-(4-cyano-3-fluorophenyl)-3-(2-(dimethylamino)pyrimidin-5-yl)pyridin-4-yl)oxy)-N-hydroxyheptanamide formate] |  | 2770 | 3.32 | 332 | 775 | 1.95 |  |  | 
